According to patent publication US5051403A (priority 1989, dated 1991):
Several values for one entry are separate records, joined by “and”; a condition that tells them apart may be missing. Equal values may be shown once. Bridge positions count the residues as written; N and C are the ends. Square brackets hold non-standard residues; d marks the D form. Peptide text beside a SMILES is read from it. Hyp = O=C(O)[C@@H]1C[C@@H](O)CN1

Experiments:
[1] = target: OCT binding sites, elasmobranch electric organ synaptosomes (Diplobatis ommata, UniProt P56698); test: biochemical; design: species or system Ommata dyscopyge (marine electric ray)
[2] = target: OCT binding site, rat brain synaptosomes (Rattus norvegicus, UniProt Q02294); test: biochemical
[3] = test system: voltage-gated calcium channels, dorsal root ganglion (DRG) neurons; settings: cited from earlier work
[4] = test system: hippocampal CA1 region, gerbil global ischemia model; design: species or system Meriones unguiculatus (mongolian gerbil); settings: in vivo
[5] = test system: depolarization-dependent ATP release from electric organ synaptosomes; assay type: biochemical, Ommata discopyge; settings: read-out: IC50 (ATP release inhibition)
[6] = test system: hippocampal CA1 region, rat four-vessel occlusion model; design: species or system rat (Fisher 344); settings: in vivo
[7] = test system: OCT receptor sites, 293 human kidney cells; assay type: binding
Male Swiss-Webster mice = settings: mouse, in vivo; cited from earlier work
[8] = target: OCT receptor sites, PC-12 rat pheochromocytoma cells (Rattus norvegicus, UniProt Q02294); assay type: binding
OCT receptor sites, PC-12 rat pheochromocytoma cells, sequence (Q02294 whole entry, looked up): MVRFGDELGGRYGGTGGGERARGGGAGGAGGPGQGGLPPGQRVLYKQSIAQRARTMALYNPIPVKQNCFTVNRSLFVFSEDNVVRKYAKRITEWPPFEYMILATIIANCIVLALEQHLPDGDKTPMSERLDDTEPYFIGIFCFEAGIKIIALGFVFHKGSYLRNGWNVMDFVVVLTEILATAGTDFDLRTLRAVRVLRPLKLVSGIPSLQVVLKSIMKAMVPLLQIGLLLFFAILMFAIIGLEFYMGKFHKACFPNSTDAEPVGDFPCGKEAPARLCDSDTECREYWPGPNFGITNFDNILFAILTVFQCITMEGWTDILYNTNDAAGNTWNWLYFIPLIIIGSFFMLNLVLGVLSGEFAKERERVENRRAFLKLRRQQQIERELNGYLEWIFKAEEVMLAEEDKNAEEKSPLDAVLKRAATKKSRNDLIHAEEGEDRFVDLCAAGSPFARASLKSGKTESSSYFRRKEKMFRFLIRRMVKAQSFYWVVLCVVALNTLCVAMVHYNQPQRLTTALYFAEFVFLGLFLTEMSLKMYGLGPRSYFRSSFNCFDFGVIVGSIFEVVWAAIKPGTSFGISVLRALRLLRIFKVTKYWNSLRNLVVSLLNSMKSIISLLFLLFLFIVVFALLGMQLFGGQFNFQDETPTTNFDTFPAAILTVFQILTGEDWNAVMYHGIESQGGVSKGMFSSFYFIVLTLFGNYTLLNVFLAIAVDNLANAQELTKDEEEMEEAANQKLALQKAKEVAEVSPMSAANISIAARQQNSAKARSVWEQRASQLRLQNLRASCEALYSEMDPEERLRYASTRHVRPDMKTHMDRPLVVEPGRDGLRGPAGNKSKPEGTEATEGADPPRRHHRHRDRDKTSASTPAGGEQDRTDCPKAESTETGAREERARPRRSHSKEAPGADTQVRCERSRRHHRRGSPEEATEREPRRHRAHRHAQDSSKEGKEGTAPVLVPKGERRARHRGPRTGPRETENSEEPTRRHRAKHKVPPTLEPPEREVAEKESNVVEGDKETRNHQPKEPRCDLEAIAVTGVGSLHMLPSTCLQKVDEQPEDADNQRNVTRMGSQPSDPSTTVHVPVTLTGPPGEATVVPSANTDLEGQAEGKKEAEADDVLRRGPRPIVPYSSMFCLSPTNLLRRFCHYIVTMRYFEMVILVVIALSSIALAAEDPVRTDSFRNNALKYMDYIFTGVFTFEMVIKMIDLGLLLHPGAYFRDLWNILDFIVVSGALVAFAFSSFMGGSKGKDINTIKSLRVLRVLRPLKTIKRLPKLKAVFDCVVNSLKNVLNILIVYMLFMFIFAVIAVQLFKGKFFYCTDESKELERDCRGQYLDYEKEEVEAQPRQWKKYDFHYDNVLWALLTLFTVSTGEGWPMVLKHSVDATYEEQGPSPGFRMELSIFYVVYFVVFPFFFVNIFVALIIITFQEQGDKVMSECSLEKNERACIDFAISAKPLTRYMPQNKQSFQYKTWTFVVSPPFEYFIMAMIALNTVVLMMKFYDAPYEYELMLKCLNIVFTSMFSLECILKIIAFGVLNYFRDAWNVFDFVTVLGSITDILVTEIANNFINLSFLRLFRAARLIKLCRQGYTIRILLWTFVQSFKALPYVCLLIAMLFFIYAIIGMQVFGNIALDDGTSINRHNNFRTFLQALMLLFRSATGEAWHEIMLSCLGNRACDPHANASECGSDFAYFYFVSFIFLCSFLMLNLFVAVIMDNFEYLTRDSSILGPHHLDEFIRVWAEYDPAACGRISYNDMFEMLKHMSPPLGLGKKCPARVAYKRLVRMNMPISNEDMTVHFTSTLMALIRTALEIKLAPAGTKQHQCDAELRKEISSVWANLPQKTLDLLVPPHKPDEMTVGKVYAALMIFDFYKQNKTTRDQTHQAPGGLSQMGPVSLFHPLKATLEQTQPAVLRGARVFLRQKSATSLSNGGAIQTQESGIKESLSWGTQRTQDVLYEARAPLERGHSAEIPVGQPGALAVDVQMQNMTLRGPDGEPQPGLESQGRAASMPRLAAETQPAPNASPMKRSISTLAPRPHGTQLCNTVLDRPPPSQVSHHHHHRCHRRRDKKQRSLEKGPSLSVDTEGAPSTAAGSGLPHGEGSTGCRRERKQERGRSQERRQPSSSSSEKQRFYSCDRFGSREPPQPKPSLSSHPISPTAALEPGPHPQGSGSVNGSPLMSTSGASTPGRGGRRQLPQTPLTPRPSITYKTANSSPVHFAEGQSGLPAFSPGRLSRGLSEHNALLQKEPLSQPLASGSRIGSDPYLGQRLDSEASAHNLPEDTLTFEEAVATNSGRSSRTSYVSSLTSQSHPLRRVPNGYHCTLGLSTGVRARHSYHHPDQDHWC

OCT binding sites, elasmobranch electric organ synaptosomes, sequence (P56698 whole entry, looked up): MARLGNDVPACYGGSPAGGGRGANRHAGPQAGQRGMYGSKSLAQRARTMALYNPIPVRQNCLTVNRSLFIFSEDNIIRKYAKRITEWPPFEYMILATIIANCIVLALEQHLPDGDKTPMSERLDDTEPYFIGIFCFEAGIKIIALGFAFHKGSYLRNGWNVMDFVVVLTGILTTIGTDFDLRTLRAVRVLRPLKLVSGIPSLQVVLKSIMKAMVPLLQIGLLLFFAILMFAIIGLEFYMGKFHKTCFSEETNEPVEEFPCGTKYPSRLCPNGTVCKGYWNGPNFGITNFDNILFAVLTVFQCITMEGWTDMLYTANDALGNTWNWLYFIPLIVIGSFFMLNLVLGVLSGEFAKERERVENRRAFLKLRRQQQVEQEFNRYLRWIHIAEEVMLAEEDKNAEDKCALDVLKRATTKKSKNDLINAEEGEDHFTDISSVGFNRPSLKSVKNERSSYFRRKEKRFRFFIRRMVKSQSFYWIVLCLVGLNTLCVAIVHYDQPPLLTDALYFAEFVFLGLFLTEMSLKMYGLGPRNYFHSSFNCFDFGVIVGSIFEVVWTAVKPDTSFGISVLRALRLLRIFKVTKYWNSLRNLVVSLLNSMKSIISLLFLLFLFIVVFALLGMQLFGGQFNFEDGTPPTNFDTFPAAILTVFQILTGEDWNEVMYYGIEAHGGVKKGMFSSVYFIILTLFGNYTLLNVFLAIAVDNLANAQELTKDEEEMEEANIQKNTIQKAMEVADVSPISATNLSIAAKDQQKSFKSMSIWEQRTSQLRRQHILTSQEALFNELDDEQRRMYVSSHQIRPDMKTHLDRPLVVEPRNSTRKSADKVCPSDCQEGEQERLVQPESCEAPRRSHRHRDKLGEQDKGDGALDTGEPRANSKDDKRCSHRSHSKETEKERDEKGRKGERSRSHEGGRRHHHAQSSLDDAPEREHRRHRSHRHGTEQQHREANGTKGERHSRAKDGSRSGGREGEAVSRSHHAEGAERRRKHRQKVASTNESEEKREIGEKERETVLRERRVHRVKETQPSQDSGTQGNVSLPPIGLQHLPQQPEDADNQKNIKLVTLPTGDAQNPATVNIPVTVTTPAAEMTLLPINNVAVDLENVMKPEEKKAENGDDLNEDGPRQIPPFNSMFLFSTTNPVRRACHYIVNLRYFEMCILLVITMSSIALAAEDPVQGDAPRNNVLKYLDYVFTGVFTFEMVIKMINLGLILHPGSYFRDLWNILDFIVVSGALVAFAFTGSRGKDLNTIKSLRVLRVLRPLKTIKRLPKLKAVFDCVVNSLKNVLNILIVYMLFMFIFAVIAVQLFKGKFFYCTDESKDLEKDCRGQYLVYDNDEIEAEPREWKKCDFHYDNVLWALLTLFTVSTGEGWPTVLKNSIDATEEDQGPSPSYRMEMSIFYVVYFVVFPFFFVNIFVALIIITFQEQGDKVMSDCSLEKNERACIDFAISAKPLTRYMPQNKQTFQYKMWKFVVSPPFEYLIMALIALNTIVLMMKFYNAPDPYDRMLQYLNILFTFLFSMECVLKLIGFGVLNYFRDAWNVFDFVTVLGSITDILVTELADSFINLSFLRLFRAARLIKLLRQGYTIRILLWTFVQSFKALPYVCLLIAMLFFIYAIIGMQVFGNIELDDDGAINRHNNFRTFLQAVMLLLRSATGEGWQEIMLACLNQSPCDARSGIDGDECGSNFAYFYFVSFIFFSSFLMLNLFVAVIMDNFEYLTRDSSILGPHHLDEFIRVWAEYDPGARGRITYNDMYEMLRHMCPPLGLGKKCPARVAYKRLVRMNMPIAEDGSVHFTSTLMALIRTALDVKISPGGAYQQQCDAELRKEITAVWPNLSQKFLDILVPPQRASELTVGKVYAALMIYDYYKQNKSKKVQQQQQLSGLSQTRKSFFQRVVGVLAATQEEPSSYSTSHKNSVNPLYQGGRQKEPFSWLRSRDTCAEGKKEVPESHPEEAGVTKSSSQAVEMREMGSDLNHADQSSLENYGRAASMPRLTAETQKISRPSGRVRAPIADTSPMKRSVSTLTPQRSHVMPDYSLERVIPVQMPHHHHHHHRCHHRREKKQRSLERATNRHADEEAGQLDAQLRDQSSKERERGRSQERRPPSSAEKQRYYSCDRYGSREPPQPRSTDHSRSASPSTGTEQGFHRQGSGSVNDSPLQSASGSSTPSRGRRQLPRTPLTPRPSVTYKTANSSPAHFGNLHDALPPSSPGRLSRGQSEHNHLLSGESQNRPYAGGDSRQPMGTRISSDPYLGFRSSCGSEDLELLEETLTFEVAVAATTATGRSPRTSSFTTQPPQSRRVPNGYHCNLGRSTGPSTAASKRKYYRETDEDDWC
OCT binding site, rat brain synaptosomes, sequence (Q02294 whole entry, looked up): as the sequence (Q02294 whole entry, looked up) above

Row | Structure (SMILES) | Ki ([1]; pKi) [µM] | IC50 [2] [µM] | other results
1 | CC[C@H](C)[C@@H]1NC(=O)[C@H](CO)NC(=O)[C@H]([C@@H](C)O)NC(=O)[C@H](C(C)C)NC(=O)CNC(=O)[C@@H]2CSSC[C@@H]3NC(=O)[C@H](CCCNC(=N)N)NC(=O)CNC(=O)[C@H](CSSC[C@H](N)C(=O)N[C@@H](CCCNC(=N)N)C(=O)N[C@@H](CO)C(=O)N[C@@H](CO)C(=O)NCC(=O)N[C@@H](CO)C(=O)N4C[C@H](O)C[C@H]4C(=O)N[C@@H](Cc4c[nH]cn4)C(=O)N2)NC(=O)[C@H](CSSC[C@@H](C(=O)N[C@H](C(N)=O)[C@@H](C)O)NC(=O)[C@H](CCCCN)NC(=O)CNC(=O)[C@H](CCCNC(=N)N)NC(=O)[C@H](Cc2ccc(O)cc2)NC3=O)NC1=O [SVIA, H-CysArgSerSerGlySer4HypHisCysGlyValThrSerIleCysCysGly ArgCysTyrArgGlyLysCysThr-NH2] (H-CRSSGS[Hyp]HCGVTSICCGRCYRGKCT-NH2; disulfide 1-16, 9-19, 15-24) | > 1000 | > 1000 | binding affinity/activity (in words) [1]: relatively low affinity binding
2 | CSCC[C@@H]1NC(=O)CNC(=O)[C@H](CCCNC(=N)N)NC(=O)[C@H](CO)NC(=O)[C@@H]2CSSC[C@@H]3NC(=O)[C@H](CO)NC(=O)[C@H]([C@@H](C)O)NC(=O)[C@H](CSSC[C@H](N)C(=O)N[C@@H](CCCCN)C(=O)N[C@@H](CO)C(=O)N4C[C@H](O)C[C@H]4C(=O)NCC(=O)N[C@@H]([C@@H](C)O)C(=O)N4C[C@H](O)C[C@H]4C(=O)N2)NC(=O)[C@H](CSSC[C@@H](C(=O)N[C@@H](CCCNC(=N)N)C(=O)N[C@@H](CCCNC(=N)N)C(=O)N[C@@H](Cc2ccc(O)cc2)C(N)=O)NC(=O)[C@H](CCCCN)NC(=O)[C@H](CC(N)=O)NC(=O)[C@H](CO)NC(=O)[C@H](Cc2ccc(O)cc2)NC(=O)[C@H](CC(C)C)NC(=O)[C@H](CC(C)C)NC3=O)NC(=O)[C@H](CC(=O)O)NC(=O)[C@H](CCCNC(=N)N)NC1=O [GVIIA] (H-CKS[Hyp]GT[Hyp]CSRGMRDCCTSCLLYSNKCRRY-NH2; disulfide 1-16, 8-19, 15-26) | 0.00309 | 0.0229 | 
3 | CC(C)[C@@H]1NC(=O)[C@H](CCCNC(=N)N)NC(=O)[C@@H]2CSSC[C@@H]3NC(=O)[C@H](CO)NC(=O)[C@H](CO)NC(=O)[C@H](CSSC[C@H](N)C(=O)N[C@@H](CCCCN)C(=O)N4CCC[C@H]4C(=O)N4C[C@H](O)C[C@H]4C(=O)NCC(=O)N[C@@H](CO)C(=O)N4C[C@H](O)C[C@H]4C(=O)N2)NC(=O)[C@H](CSSC[C@@H](C(=O)NCC(N)=O)NC(=O)[C@H](CCCCN)NC(=O)[C@H](CCCCN)NC(=O)[C@H](CC(N)=O)NC(=O)[C@H](Cc2ccc(O)cc2)NC(=O)[C@H](CO)NC(=O)[C@H](CCCCN)NC3=O)NC(=O)[C@H](CC(N)=O)NC(=O)[C@H](Cc2ccc(O)cc2)NC(=O)[C@H](CO)NC(=O)[C@H](CO)NC1=O [RVIA] (H-CKP[Hyp]GS[Hyp]CRVSSYNCCSSCKSYNKKCG-NH2; disulfide 1-16, 8-19, 15-26) | 0.355 | 0.229 | Ki ([1]; Ki): 0.324 µM
4 | C[C@@H]1NC(=O)CNC(=O)[C@H](CCCCN)NC(=O)CNC(=O)[C@H](CCCCN)NC(=O)[C@@H](N)CSSC[C@@H]2NC(=O)[C@@H]3CSSC[C@@H](C(N)=O)NC(=O)[C@H](CCCCN)NC(=O)CNC(=O)[C@H](CCCNC(=N)N)NC(=O)[C@H](CC(N)=O)NC(=O)[C@H](CSSC[C@H](NC(=O)[C@H](CO)NC1=O)C(=O)N[C@@H](Cc1c[nH]cn1)C(=O)N[C@@H](CCCNC(=N)N)C(=O)N[C@@H]([C@@H](C)O)C(=O)N[C@@H](CO)C(=O)N[C@@H](Cc1ccc(O)cc1)C(=O)N[C@@H](CC(=O)O)C(=O)N3)NC(=O)[C@H](CO)NC(=O)CNC(=O)[C@H]([C@@H](C)O)NC2=O [MVIIB] (H-CKGKGASCHRTSYDCCTGSCNRGKC-NH2; disulfide 1-16, 8-20, 15-25) | 0.0219 | 0.00049 | 
5 | C[C@@H](O)[C@@H]1NC(=O)[C@H](Cc2ccc(O)cc2)NC(=O)[C@@H]2C[C@@H](O)CN2C(=O)[C@H](CC(N)=O)NC(=O)[C@@H]2CSSC[C@@H]3NC(=O)[C@H](CO)NC(=O)[C@H](CO)NC(=O)CNC(=O)[C@@H]4C[C@@H](O)CN4C(=O)[C@H](CO)NC(=O)[C@H](CCCCN)NC(=O)[C@@H](N)CSSC[C@H](NC(=O)[C@H](CSSC[C@@H](C(=O)N[C@@H](Cc4ccc(O)cc4)C(N)=O)NC(=O)[C@H](CCCNC(=N)N)NC(=O)[C@H](CCCCN)NC1=O)NC(=O)[C@H](CC(N)=O)NC(=O)[C@H](Cc1ccc(O)cc1)NC(=O)[C@H](CO)NC(=O)[C@H]([C@@H](C)O)NC(=O)[C@@H]1C[C@@H](O)CN1C(=O)[C@H](CO)NC3=O)C(=O)N[C@@H](CCCNC(=N)N)C(=O)N[C@@H](CO)C(=O)N2 [GVIA, HCysLysSer4HypGlySerSerCysSer4HypThrSerTyrAsnCysCysArgSerCysAsn4HypTyrLysArgCysTyr-NH2] | 0.0141 | 0.00048 | block of voltage-gated calcium channels [3]: block voltage-gated calcium channels; Mean score (S.E.M), CA1 damage 0-4 [4]: 1.3 (.33) and 1.2 (.39); Percent Damage [4]: 42% and 39%; reduction in damage [4]: > 50%; IC50 [5]: 0.2 µM
6 | CC(C)C[C@@H]1NC(=O)[C@H](CCCCN)NC(=O)[C@@H](N)CSSC[C@@H]2NC(=O)[C@@H]3CSSC[C@@H](C(N)=O)NC(=O)[C@H](CCCCN)NC(=O)CNC(=O)[C@H](CO)NC(=O)[C@H](CCCNC(=N)N)NC(=O)CNC(=O)[C@H](CSSC[C@H](NC(=O)[C@H](CO)NC(=O)[C@H](CCC(N)=O)NC(=O)CNC(=O)[C@H](CCCCN)NC1=O)C(=O)N[C@@H](CCCNC(=N)N)C(=O)N[C@@H](CCCCN)C(=O)N[C@@H]([C@@H](C)O)C(=O)N[C@@H](CO)C(=O)N[C@@H](Cc1ccc(O)cc1)C(=O)N[C@@H](CC(=O)O)C(=O)N3)NC(=O)[C@H](CO)NC(=O)CNC(=O)[C@H](CO)NC2=O [SVIB] (H-CKLKGQSCRKTSYDCCSGSCGRSGKC-NH2; disulfide 1-16, 8-20, 15-26) | 0.00302 | 0.0057 | 
7 | CSCC[C@@H]1NC(=O)[C@H](CC(C)C)NC(=O)[C@H](CCCNC(=N)N)NC(=O)[C@H](CO)NC(=O)[C@@H]2CSSC[C@@H]3NC(=O)[C@H](CO)NC(=O)CNC(=O)[C@H]([C@@H](C)O)NC(=O)[C@H](CSSC[C@H](N)C(=O)N[C@@H](CCCCN)C(=O)NCC(=O)N[C@@H](CCCCN)C(=O)NCC(=O)N[C@@H](C)C(=O)N[C@@H](CCCCN)C(=O)N2)NC(=O)[C@H](CSSC[C@@H](C(N)=O)NC(=O)[C@H](CCCCN)NC(=O)CNC(=O)[C@H](CO)NC(=O)[C@H](CCCNC(=N)N)NC3=O)NC(=O)[C@H](CC(=O)O)NC(=O)[C@H](Cc2ccc(O)cc2)NC1=O [MVIIA] |  |  | Mean score (S.E.M), CA1 damage 0-4 [6]: 1.2 (0.36); concentration of specific binding sites [7]: < 4.6; effect of ICV administration in mice (Male Swiss-Webster mice): whole-body tremors; concentration of specific binding sites [8]: 56.6 and 79.1; IC50 [5]: 0.03 µM
